Two molecules from US20100015058A1, “RADIOLABELED BBN-RGD HETERODIMERS FOR CANCER TARGETING” (STANFORD UNIVERSITY, priority 2008, published 2010) can be followed below.

The target in this experiment is T1, GRPR (Homo sapiens, UniProt P30550).
T1 construct: Experiments were performed on GRPR-expressing PC-3 cells following our previously described procedure; endogenous in cells; host or cells: PC-3 human prostate carcinoma cells
Briefly: Displacement cell-binding assay with ^125I-[Tyr4]BBN on PC-3 cells. On the procedure:
Experiments were performed with triplicate samples.
BBN as the radioligand. […] Experiments were performed twice with triplicate samples.

T1 sequence (P30550 whole entry): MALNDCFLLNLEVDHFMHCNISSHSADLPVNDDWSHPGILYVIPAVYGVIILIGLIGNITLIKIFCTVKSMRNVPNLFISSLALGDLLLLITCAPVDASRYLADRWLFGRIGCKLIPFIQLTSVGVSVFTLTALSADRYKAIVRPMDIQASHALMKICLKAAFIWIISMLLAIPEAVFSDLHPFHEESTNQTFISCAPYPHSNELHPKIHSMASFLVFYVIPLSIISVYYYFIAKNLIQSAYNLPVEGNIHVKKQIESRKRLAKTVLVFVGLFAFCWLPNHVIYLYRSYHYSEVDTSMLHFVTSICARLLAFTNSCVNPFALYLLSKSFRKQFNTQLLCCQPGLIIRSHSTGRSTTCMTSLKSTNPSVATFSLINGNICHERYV

One may read the IC50 as the point on the concentration scale where inhibition reaches its midpoint. Consider `CSCC[C@H](NC(=O)[C@H](CC(C)C)NC(=O)[C@H](Cc1c[nH]cn1)NC(=O)CNC(=O)[C@@H](NC(=O)[C@H](C)NC(=O)[C@H](Cc1c[nH]c2ccccc12)NC(=O)[C@H](CCC(N)=O)NC(=O)CCCCCNC(=O)CC[C@H](NC(=O)COCCOCCOCCN)C(=O)NCCCC[C@@H]1NC(=O)[C@@H](Cc2ccc(O)cc2)NC(=O)[C@H](CC(=O)O)NC(=O)CNC(=O)[C@H](CCCNC(=N)N)NC1=O)C(C)C)C(N)=O` [PEG3-Glu-RGD-BBN], for which the IC50 (FIG. 34B, PEG3-Glu-RGD-BBN series, read-out: IC50, displacement of ^125I-[Tyr4]BBN from PC-3 cells) came out at 85.4 ± 1.95 nM.

With `N=C(N)NCCC[C@@H]1NC(=O)[C@H](CCCCN)NC(=O)[C@@H](Cc2ccc(O)cc2)NC(=O)[C@H](CC(=O)O)NC(=O)CNC1=O` [c(RGDyK), cyclo(Arg-Gly-Asp-D-Tyr-Lys), reference compound], the “binding inhibition of ^125I-[Tyr4]BBN with GRPR” value (PC-3 cells, FIG. 14B) is reported as “did not show significant binding inhibition”.
